The nature of data set [1]: Solubilization of quercetin, quercitrin and rutin by heat in water, grape anthocyanin and malvin chloride solutions (Example 6). The class given is physicochemical. The conditions noted are these: thermodynamic from solid. How it is done: Quercetin is a flavonol aglycone. In fruit juices it exists as the glycoside. The purpose of the investigation was to examine the solubilization of glycosides of flavonols by anthocyanins. […] Samples were diluted in water 1:9 before reading. Aliquots of anthocyanin and water with and without the flavonol were treated similarly.
The same procedure was used for measuring the solubility of the flavonols in malvin chloride. In this case 1.8 mg malvin chloride was dissolved in 2.0 ml citrate buffer at pH3. To 1 ml was added 2 mg of the flavonol, the other 1 ml acted as a control. After heating, the mixture was cooled to room temperature, centrifuged, and the supernatant diluted 1:9 with 50% aqueous ethanol. The optical densities were measured at 375 nm.

The nature of data set [2]: physchem. The format is physicochemical. The conditions noted are these: 20 °C, aqueous with cosolvent or surfactant or cyclodextrin, kinetic from dmso stock. How it is done: The procedure used was as follows: anthocyanin powder was dissolved in deionised water to give concentrations of 0.625, 1.25, 2.5, 10 and 20 mg/ml. […] The mixtures were allowed to stand for 20 to 30 min and then centrifuged at 2000×g for 30 min at 20° C. The optical densities were measured at 258 nm and 375 nm as in Example 1. To 5 ml of each corresponding anthocyanin solution was added the same volume of ethanol determined above to give a precipitate, and the optical densities measured. […] The control was water.
Since quercitin is more soluble in aqueous ethanol than water a further series of controls were prepared in which quercetin in ethanol was added to water in amounts corresponding to those used in the test, and the solubilities likewise determined. […] To solubilize quercetin more anthocyanin was needed than quercetin w/w.

A short description of data set [3]: Solubility of solid quercetin mixed with liquids at room temperature (Example 3). The class given is physicochemical. The settings on record: 20 °C, thermodynamic from solid, Room temp.
A short description of data set [4]: Solubility of solid quercetin in liquids after heating to boiling in microwave oven (Example 3). The format is physicochemical. The settings on record: 20 °C, thermodynamic from solid. How it is done: To investigate dissolution by heat, the liquids were heated in a sealed tube for 1 min in a microwave oven (when boiling of the liquid occurred) and cooled to room temperature.

Data set [5] can be described thus: Solubilization of quercetin in aqueous malvin chloride by addition of ethanol solution of quercetin (Example 5). The class given is physicochemical. How it is done:
The anthocyanins can be divided into two major classes: the monomeric anthocyanins and the polymeric anthocyanins. A typical example of a monomeric anthocyanin is malvin chloride, a salt of the oxonium ion malvidin-3-glucose and the chloride ion. It can be obtained in a high state of purity (Indofine Inc, USA) and therefore used to determine the solubilizing effect of an anthocyanin monomer. The procedure was as follows: malvin chloride (2.2 mg) was dissolved in 2 ml citrate buffer (pH 3.0)—one ml acted as a control. […] Equal amounts of ethanol were added to the control. Each solution was diluted (1:9) with 5% aqueous ethanol and the optical density determined at 275 nm.

The conditions of data set [6]: ileostomy subjects (Hollman et al 1995); cited from earlier work.
The mark [7] stands for this setting: aqueous with cosolvent or surfactant or cyclodextrin.
Where [8] appears, read: pH 3, aqueous with cosolvent or surfactant or cyclodextrin.

Each structure is given as a SMILES string. ≈ marks a conversion by molar mass, not a printed value.

As to `C[C@@H]1O[C@@H](Oc2c(-c3ccc(O)c(O)c3)oc3cc(O)cc(O)c3c2=O)[C@H](O)[C@H](O)[C@H]1O` [Quercitrin, quercetin 3-L-rhamnoside], the solubility at 1 min in data set [1] (setting [7]) worked out at 316 µg/mL (≈ 705 µM); in data set [1] (setting [8]) it was 127 µg/mL (≈ 283 µM); in data set [1] (water) it was 53 µg/mL (≈ 118 µM).

As for `O=c1c(O)c(-c2ccc(O)c(O)c2)oc2cc(O)cc(O)c12` [quercetin], the solubility turned out to be 13 µg/mL (≈ 43 µM) in data set [2]; 75 µg/mL (≈ 248 µM) in data set [2] (Solubility of quercetin, 20 mg grape anthocyanin powder/ml, in a 22% ethanol solution); 13 µg/mL (≈ 43 µM) in data set [5] (20% v/v ethanol, aqueous with cosolvent or surfactant or cyclodextrin, ethanol 20% v/v, without malvin chloride). Besides, the solubility at 3 h turned out to be 1 µg/mL (≈ 3.31 µM) in data set [3] (aqueous with cosolvent or surfactant or cyclodextrin, Ethanol 12% v/v); 3 µg/mL (≈ 9.93 µM) in data set [3] (aqueous with cosolvent or surfactant or cyclodextrin, Red wine Cabernet-Sauvignon (F)); 0.7 µg/mL (≈ 2.32 µM) in data set [3] (aqueous with cosolvent or surfactant or cyclodextrin, grape Anthocyanin powder 1 g/L in water); 0.3 µg/mL (≈ 0.993 µM) in data set [3] (Water, OD 375 nm). For the same molecule, the solubility at 1 min turned out to be 9 µg/mL (≈ 29.8 µM) in data set [4] (aqueous with cosolvent or surfactant or cyclodextrin, Boiling, Rosé D'Anjou (F)); 2 µg/mL (≈ 6.62 µM) in data set [4] (water, Solubility of quercetin); 90 µg/mL (≈ 298 µM) in data set [1] (setting [7]); 28 µg/mL (≈ 92.6 µM) in data set [1] (setting [8]); 2 µg/mL (≈ 6.62 µM) in data set [1] (water). The “Solubility of quercetin in presence of malvin chloride” value in data set [5] (citrate buffer pH 3.0, 20% v/v ethanol, possibly super saturated) is listed as “extremely soluble”. Also, the “quercetin added to 1 ml malvin chloride with no precipitate” value in data set [5] (malvin chloride 1.1 mg/ml in citrate buffer pH 3.0, quercetin added in ethanol, slight precipitate at 1000 μg) was determined as 750 µg. Also, the absorption in data set [6] is recorded as 25%.

Turning to `C[C@@H]1O[C@@H](OC[C@H]2O[C@@H](Oc3c(-c4ccc(O)c(O)c4)oc4cc(O)cc(O)c4c3=O)[C@H](O)[C@@H](O)[C@@H]2O)[C@H](O)[C@H](O)[C@H]1O` [Rutin, quercetin 3β-D-rutinoside hydrate], the solubility at 1 min in data set [1] (setting [7]) is 260 µg/mL; in data set [1] (setting [8]), 74 µg/mL; in data set [1] (water), 36 µg/mL.

The term solubility denotes the concentration that dissolves in the medium under given conditions. Read a high solubility as much dissolved substance.

The values above are taken from patent US6569446B1, “Solubilization of flavonols” (The Howard Foundation, priority 1996, dated 2003).
